Assay results: ChEMBL document CHEMBL5543113, “Amphiphilic α-Peptoid-deoxynojirimycin Conjugate-based Multivalent Glycosidase Inhibitor for Hypoglycemic Effect and Fluorescence Imaging” (J Med Chem, 2024)
Active and inactive are the calls of the source. The calls are words filed in the database; no cut-off is given here.

Legend:
[1] = Inhibition of Aspergillus niger Alpha-glucosidase incubated for 10 mins by Lineweaver-Burk plot analysis
[2] = Inhibition of rice Alpha-glucosidase incubated for 10 mins by Lineweaver-Burk plot analysis; design: species or system Oryza sativa
[3] = Inhibition of C57BL/6J mouse Alpha-glucosidase incubated for 10 mins by Lineweaver-Burk plot analysis
[4] = target: Alpha-glucosidase (Saccharomyces cerevisiae S288c) (UniProt P53341+P38158+P07265); assay: Inhibition of Saccharomyces cerevisiae Alpha-glucosidase at 1 mM incubated for 10 mins by absorbance based microplate spectrophotometric analysis; format: protein assay
[5] = Self assembly property of the compound in water assessed as mean diameter at 1 x 10^-4 M by dynamic light scattering spectrometric analysis; format: physicochemical; conditions: buffer, 100 µM; dose 1 10^-4M
[6] = Self assembly property of the compound in water assessed as diameter at 1 x 10^-4 M by transmission electron microscopic analysis; format: physicochemical; conditions: buffer, 100 µM; dose 1 10^-4M
[7] = Self assembly property of compound in citric acid-phosphate buffer at pH 2 at 1 x 10^-4 M assessed as diameter by dynamic light scattering spectrometric analysis; format: physicochemical; conditions: pH 2, 100 µM, dose 1 10^-4M
[8] = Self assembly property of compound in citric acid-phosphate buffer at pH 3 to 7 at 1 x 10^-4M assessed as diameter by dynamic light scattering spectrometric analysis; format: physicochemical; conditions: pH 3, 100 µM, dose 1 10^-4M
[9] = tested on: Mus musculus; assay: Hypoglycemic activity in KKAy diabetic mouse model assessed as blood glucose level at 1.6 mg/kg, po co-administered with 1 g/kg maltose and measured after 15 mins by glucometer (reference value: 453 +/- 38.6 mg/dl); format: functional; conditions: 0.25 h
[10] = tested on: Mus musculus; assay: Hypoglycemic activity in KKAy diabetic mouse model assessed as blood glucose level at 1.6 mg/kg, po co-administered with 1 g/kg maltose and measured after 30 mins by glucometer (reference value: 491.4 +/- 22.5 mg/dl); format: functional; conditions: 0.5 h
[11] = tested on: Mus musculus; assay: Hypoglycemic activity in KKAy diabetic mouse model assessed as blood glucose level at 1.6 mg/kg, po co-administered with 1 g/kg maltose and measured after 60 mins by glucometer (reference value: 498.6 +/- 31.6 mg/dl); format: functional; conditions: 1 h
[12] = tested on: Mus musculus; assay: Hypoglycemic activity in KKAy diabetic mouse model assessed as blood glucose level at 1.6 mg/kg, po co-administered with 1 g/kg maltose and measured after 120 mins by glucometer (reference value: 278.4 +/- 14.9 mg/dl); format: functional; conditions: 2 h
[13] = tested on: Mus musculus; assay: Hypoglycemic activity in KKAy diabetic mouse model assessed as decrease in PBG level at 1.6 mg/kg, po co-administered with 1 g/kg maltose measured after 15 mins by glucometer relative to control; format: functional; design: scale not given: the % may be the effect or the level left; conditions: 0.25 h
[14] = tested on: Mus musculus; assay: Hypoglycemic activity in KKAy diabetic mouse model assessed as decrease in PBG level at 1.6 mg/kg, po co-administered with 1 g/kg maltose measured after 30 mins by glucometer relative to control; format: functional; design: scale not given: the % may be the effect or the level left; conditions: 0.5 h
[15] = tested on: Mus musculus; assay: Hypoglycemic activity in KKAy diabetic mouse model assessed as decrease in PBG level at 1.6 mg/kg, po co-administered with 1 g/kg maltose measured at 60 to 120 mins by glucometer; format: functional, organism-based; conditions: time 60-120 min
[16] = tested on: Mus musculus; assay: Hypoglycemic activity in C57BL/6J mouse assessed as molar reduction in PBG level at 1.6 mg/kg, po co-administered with maltose and measured after 30 mins by glucometer relative to control; format: functional; design: scale not given: the % may be the effect or the level left; conditions: 0.5 h
[17] = tested on: Mus musculus; assay: Hypoglycemic activity in C57BL/6J mouse assessed as blood glucose level at 0.4 mg/kg, po co-administered with maltose and measured after 15 mins by glucometer (380.8 +/- 20.6 mg/dl); format: functional; conditions: 0.25 h
[18] = tested on: Mus musculus; assay: Hypoglycemic activity in C57BL/6J mouse assessed as blood glucose level at 0.8 mg/kg, po co-administered with maltose and measured after 15 mins by glucometer (380.8 +/- 20.6 mg/dl); format: functional; conditions: 0.25 h
[19] = tested on: Mus musculus; assay: Hypoglycemic activity in C57BL/6J mouse assessed as blood glucose level at 1.6 mg/kg, po co-administered with maltose and measured after 15 mins by glucometer (380.8 +/- 20.6 mg/dL); format: functional; conditions: 0.25 h
[20] = tested on: Mus musculus; assay: Hypoglycemic activity in C57BL/6J mouse assessed as blood glucose level at 0.4 mg/kg, po co-administered with maltose and measured after 30 mins by glucometer (380.8 +/- 20.6 mg/dL); format: functional; conditions: 0.5 h
[21] = tested on: Mus musculus; assay: Hypoglycemic activity in C57BL/6J mouse assessed as blood glucose level at 0.8 mg/kg, po co-administered with maltose and measured after 30 mins by glucometer (380.8 +/- 20.6 mg/dL); format: functional; conditions: 0.5 h
[22] = tested on: Mus musculus; assay: Hypoglycemic activity in C57BL/6J mouse assessed as blood glucose level at 1.6 mg/kg, po co-administered with maltose and measured after 30 mins by glucometer (380.8 +/- 20.6 mg/dL); format: functional; conditions: 0.5 h
[23] = tested on: Mus musculus; assay: Hypoglycemic activity in C57BL/6J mouse assessed as decrease in PBG level at 0.4 mg/kg, po co-administered with maltose and measured after 15 mins by glucometer relative to control; format: functional; design: scale not given: the % may be the effect or the level left; conditions: 0.25 h
[24] = tested on: Mus musculus; assay: Hypoglycemic activity in C57BL/6J mouse assessed as decrease in PBG level at 0.8 mg/kg, po co-administered with maltose and measured after 15 mins by glucometer relative to control; format: functional; design: scale not given: the % may be the effect or the level left; conditions: 0.25 h
[25] = tested on: Mus musculus; assay: Hypoglycemic activity in C57BL/6J mouse assessed as decrease in PBG level at 1.6 mg/kg, po co-administered with maltose and measured after 15 mins by glucometer relative to control; format: functional; design: scale not given: the % may be the effect or the level left; conditions: 0.25 h
[26] = tested on: Mus musculus; assay: Hypoglycemic activity in C57BL/6J mouse assessed as decrease in PBG level at 0.4 mg/kg, po co-administered with maltose and measured after 30 mins by glucometer relative to control; format: functional; design: scale not given: the % may be the effect or the level left; conditions: 0.5 h
[27] = tested on: Mus musculus; assay: Hypoglycemic activity in C57BL/6J mouse assessed as decrease in PBG level at 0.8 mg/kg, po co-administered with maltose and measured after 30 mins by glucometer relative to control; format: functional; design: scale not given: the % may be the effect or the level left; conditions: 0.5 h
[28] = tested on: Mus musculus; assay: Hypoglycemic activity in C57BL/6J mouse assessed as decrease in PBG level at 1.6 mg/kg, po co-administered with maltose and measured after 30 mins by glucometer relative to control; format: functional; design: scale not given: the % may be the effect or the level left; conditions: 0.5 h
[29] = tested on: Mus musculus; assay: Hypoglycemic activity in C57BL/6J mouse assessed as reduction in PBG level measured per DNJ unit at 0.4 mg/kg, po co-administered with maltose and measured at 15 to 30 mins by glucometer relative to control; format: functional; design: scale not given: the % may be the effect or the level left; conditions: time 15-30 min
[30] = tested on: Mus musculus; assay: Hypoglycemic activity in C57BL/6J mouse assessed as reduction in PBG level measured per DNJ unit at 0.8 mg/kg, po co-administered with maltose and measured at 15 to 30 mins by glucometer relative to control; format: functional; design: scale not given: the % may be the effect or the level left; conditions: time 15-30 min
[31] = tested on: Mus musculus; assay: Hypoglycemic activity in C57BL/6J mouse assessed as reduction in PBG level measured per DNJ unit at 1.6 mg/kg, po co-administered with maltose and measured at 15 to 30 mins by glucometer relative to control; format: functional; design: scale not given: the % may be the effect or the level left; conditions: time 15-30 min
[32] = tested on: Mus musculus; assay: Hypoglycemic activity in KKAy diabetic mouse model assessed as blood glucose level at 1.6 mg/kg, po co-administered with maltose and measured after 15 mins by glucometer (reference value: 582.6 +/- 22.9 mg/dl); format: functional; conditions: 0.25 h
[33] = tested on: Mus musculus; assay: Hypoglycemic activity in KKAy diabetic mouse model assessed as blood glucose level at 1.6 mg/kg, po co-administered with maltose and measured after 30 mins by glucometer (reference value: 582.6 +/- 22.9 mg/dl); format: functional; conditions: 0.5 h
[34] = tested on: Mus musculus; assay: Hypoglycemic activity in KKAy diabetic mouse model assessed as blood glucose level at 1.6 mg/kg, po co-administered with maltose and measured after 60 mins by glucometer (reference value: 582.6 +/- 22.9 mg/dl); format: functional; conditions: 1 h
[35] = tested on: Mus musculus; assay: Hypoglycemic activity in KKAy diabetic mouse model assessed as blood glucose level at 1.6 mg/kg, po co-administered with maltose and measured after 120 mins by glucometer (reference value: 582.6 +/- 22.9 mg/dl); format: functional; conditions: 2 h
[36] = tested on: Mus musculus; assay: Hypoglycemic activity in KKAy diabetic mouse model assessed as decrease in PBG level at 1.6 mg/kg, po co-administered with maltose and measured after 15 mins by glucometer relative to control; format: functional; design: scale not given: the % may be the effect or the level left; conditions: 0.25 h
[37] = tested on: Mus musculus; assay: Hypoglycemic activity in KKAy diabetic mouse model assessed as decrease in PBG level at 1.6 mg/kg, po co-administered with maltose and measured after 30 mins by glucometer relative to control; format: functional; design: scale not given: the % may be the effect or the level left; conditions: 0.5 h
[38] = tested on: Mus musculus; assay: Hypoglycemic activity in KKAy diabetic mouse model assessed as decrease in PBG level at 1.6 mg/kg, po co-administered with maltose and measured after 60 mins by glucometer relative to control; format: functional; design: scale not given: the % may be the effect or the level left; conditions: 1 h
[39] = tested on: Mus musculus; assay: Hypoglycemic activity in KKAy diabetic mouse model assessed as decrease in PBG level at 1.6 mg/kg, po co-administered with maltose and measured after 120 mins by glucometer relative to control; format: functional; design: scale not given: the % may be the effect or the level left; conditions: 2 h
[40] = tested on: Mus musculus; assay: Hypoglycemic activity in KKAy diabetic mouse model assessed as molar decrease in PBG level at 1.6 mg/kg, po co-administered with maltose and measured after 30 mins by glucometer relative to control; format: functional; design: scale not given: the % may be the effect or the level left; conditions: 0.5 h

Q: What does the source list for `CCCCCCCCCCCCCCCCCCNC(=O)CN(Cc1cn(CCCN2C[C@H](O)[C@@H](O)[C@H](O)[C@H]2CO)nn1)C(=O)CN(Cc1cn(CCCN2C[C@H](O)[C@@H](O)[C@H](O)[C@H]2CO)nn1)C(=O)CN(Cc1cn(CCCN2C[C@H](O)[C@@H](O)[C@H](O)[C@H]2CO)nn1)C(=O)CN(Cc1cn(CCCN2C[C@H](O)[C@@H](O)[C@H](O)[C@H]2CO)nn1)C(C)=O`?
A: Ki [1]: 37400 nM; Ki [2]: 440 nM; Ki [3]: 15400 nM; inhibition [4]: inactive; Activity [5]: 252 nm; Activity [6]: 79 nm; Activity [7]: 211 nm; Activity [8]: ~ 250 nm

Q: For `OC[C@H]1NC[C@H](O)[C@@H](O)[C@@H]1O` [DUVOGLUSTAT], which Ki [1] is on record?
A: 3600 nM

Q: And the Ki [2]?
A: 17 nM

Q: What about the Ki [3] of the same compound?
A: 39 nM

Q: And the inhibition [4]?
A: inactive

Q: What about the Activity [9] of the same compound?
A: 354 mg/dL

Q: And the Activity [10]?
A: 476.4 mg/dL

Q: And the Activity [11]?
A: 489 mg/dL

Q: What about the Activity [12] of the same compound?
A: 296.4 mg/dL

Q: And the Activity [13]?
A: 21.8%

Q: And the Activity [14]?
A: 3.1%

Q: What about the Activity [15] of the same compound?
A: inactive

Q: What does the source list for `OCCN1C[C@H](O)[C@@H](O)[C@H](O)[C@H]1CO` [MIGLITOL]?
A: Ki [1]: 20600 nM; Ki [2]: 180 nM; Ki [3]: 1460 nM; inhibition [4]: inactive; Activity [16]: 2.8%; Activity [17]: 348.8 mg/dL; Activity [18]: 331.9 mg/dL; Activity [19]: 298.8 mg/dL; Activity [20]: 349.5 mg/dL; Activity [21]: 318.2 mg/dL; Activity [22]: 297.4 mg/dL; Activity [23]: 6.2%; Activity [24]: 10.7%; Activity [25]: 19.6%; Activity [26]: 8.2%; Activity [27]: 16.5%; Activity [28]: 21.9%; Activity [29]: 4.2%; Activity [30]: 4.3%; Activity [31]: 2.8%; Activity [32]: 532.2 mg/dL; Activity [33]: 535.8 mg/dL; Activity [34]: 512.4 mg/dL; Activity [35]: 397.2 mg/dL; Activity [36]: 3.2%; Activity [37]: 8.6%; Activity [38]: 7.7%; Activity [39]: 9.4%; Activity [40]: 1.1%
